From publication PMC7708037, “Targeting OGG1 arrests cancer cell proliferation by inducing replication stress” (Nucleic Acids Research, 2020)

Columns and labels:
NB-4 = experiment: Resazurin viability, 5 days; type: cell-based, human; conditions: NB-4, C, Acute promyelocytic leukemia
Experimental: (§1) Cells were seeded in 96- or 384-well plates and incubated for 3 days for combination experiments or 5 days for single-drug exposure experiments. Resazurin (R7017, SigmaAldrich) was added to a final concentration of 0.01 mg/ml resazurin and fluorescence was measured at ex530/em590 after incubation for 2, 4 or 6 h. Curves were fitted using XLfit software (IDBS) or Prism 8.0 (Graphpad Software), and EC50 values were determined.
(§2) Supplementary Table S1: Effect of OGG1 inhibitors on cancer and non-transformed cell lines.
(§3) Cell lines were incubated with a dilution series of the indicated compounds for 5 days, and viability
(§4) assessed with resazurin. EC50-values were calculated based on the resulting dose -response curves.
(§5) The number of independent experiments is indicated for each value.
(§6) C=cancer;N=non- Disease EC50 n= EC50 n= EC50 n=
(§7) transformed (µM) (µM) (µM) […]

Hec59+Chr2 = experiment: Resazurin viability, 5 days; type: cell-based, human; conditions: Hec59+Chr2, C, Endometrioid adenocarcinoma with WT Chr2
Experimental: as §1, §2, §3, §4, §5, §6, §7

OGG1 enzyme = OGG1 enzyme (Homo sapiens, UniProt O15527); experiment: OGG1 activity in vitro (biochemical assay); conditions: for IC50: 1 nM OGG1, 10 nM 8oxoA:C substrate, 2 nM APE1, read-out: IC50 of OGG1 inhibition
Chain of OGG1 enzyme (O15527 whole entry): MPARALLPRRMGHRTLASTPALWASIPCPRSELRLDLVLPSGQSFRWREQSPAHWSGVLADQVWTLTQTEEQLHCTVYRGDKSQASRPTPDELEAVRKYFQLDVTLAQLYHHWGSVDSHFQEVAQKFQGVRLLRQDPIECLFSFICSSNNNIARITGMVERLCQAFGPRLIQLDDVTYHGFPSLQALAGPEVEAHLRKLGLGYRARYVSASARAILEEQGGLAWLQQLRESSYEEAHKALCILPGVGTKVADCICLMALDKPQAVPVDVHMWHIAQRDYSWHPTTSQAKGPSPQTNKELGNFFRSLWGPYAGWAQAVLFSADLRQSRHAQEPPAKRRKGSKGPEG
Experimental: OGG1 activity was assessed in vitro as previously described ([39]).
Figure 7. […] (A) Lack of TH5487 efficacy in vivo. A3 cells were injected subcutaneously in mice, allowed to graft for three days and then administered […] TH5487 orally, once a day on weekdays. Twelve days into the treatment, the dose was increased to 40 mg/kg. Data are average ± SD (n = 9 per treatment group). (B) TH5487 target engagement in A3 xenograft. Tumors were excised following termination, and TH5487 target engagement was analyzed by cellular thermal shift assay, using an antibody specific for the human OGG1 protein. Data are average ± SD (n = 4 different tumors per group). (C) Effect of bovine serum albumin on OGG1 inhibition by TH5487. A dilution series of TH5487 was incubated with OGG1 enzyme and a DNA reporter oligonucleotide containing an OGG1-substrate, in the presence or absence of 1% (w/v) bovine serum albumin. Data are average ± SD of four technical replicates from two independent experiments.
Supplementary Fig. S4: OGG1 inhibitors selectively inhibt cancer cell line proliferation A. TH5796 and TH6943 inhibit OGG1 activity in vitro. OGG1 enzyme was treated with the indicated concentration inhibitor in technical duplicates. The line connects the average values. TH5796 inhibits OGG1 with an […]
with the indicated concentrations of TH5796 or TH6943 and 10 nM 8oxoA:C substrate in the presence of 2 nM APE1 as described. B. Chemical structure of TH5487 and the analogues described in this work.
C. Correlation between TH5487 EC 50 values and TH5796 or TH6943. Cell lines were treated for five […]
experiments. The lines indicate the best fit linear regression line, and R 2 the corresponding coefficient of determination. D. to F. Cancer cell selectivity for TH5487 (D), TH5796 (E) and TH6943 (F). Cell lines were treated as in Fig. 3E, and each point represents the EC50 value determined from 1 –5 independent […]
(1 picture or pasted object on this page, not shown here)

THP1 = experiment: Resazurin viability, 5 days; type: cell-based, human; conditions: THP1, C, Acute monocytic leukemia
Experimental: as §1, §2, §3, §4, §5, §6, §7
THP1 C Acute monocytic leukemia 17.8 4 19.2 2

SW1271 = experiment: Resazurin viability, 5 days; type: cell-based, human; conditions: SW1271, C, Small cell lung carcinoma
Experimental: as §1, §2, §3, §4, §5, §6

K562 = experiment: Resazurin viability, 5 days; type: cell-based, human; conditions: K562, C, Chronic myelogenous leukemia
Experimental: as §1, §2, §3, §4, §5, §6

MCF7 = experiment: Resazurin viability, 5 days; type: cell-based, human; conditions: MCF7, C, Breast adenocarcinoma
Experimental: as §1, §2, §3, §4, §5, §6

Hec59 = experiment: Resazurin viability, 5 days; type: cell-based, human; conditions: Hec59, C, Endometrioid adenocarcinoma
Experimental: as §1, §2, §3, §4, §5, §6

Row | IC50 (OGG1 enzyme) [µM] | EC50 (THP1; Homo sapiens, THP-1, 120 h) [µM] | EC50 (SW1271; Homo sapiens, 120 h) [µM] | EC50 (K562; Homo sapiens, 120 h) [µM] | EC50 (MCF7; Homo sapiens, 120 h) [µM] | Compound | EC50 (NB-4) [µM] | EC50 (Hec59+Chr2) [µM] | Effect of bovine serum albumin on OGG1 inhibition (OGG1 enzyme; presence of 1% (w/v) bovine serum albumin) | EC50 (THP1) [µM] | EC50 (SW1271) [µM] | EC50 (K562) [µM] | EC50 (MCF7) [µM] | EC50 (Hec59) [µM] | EC50 (NB-4; Homo sapiens, 120 h) [µM] | EC50 (Hec59+Chr2; Homo sapiens, 120 h) [µM] | EC50 (Hec59; Homo sapiens, 120 h) [µM]
1 |  |  |  |  |  | O=C(Nc1ccc(I)cc1)N1CCC(n2c(=O)[nH]c3c(Br)cccc32)CC1 [TH5487] | 4.8 | 15.7 | marked loss of inhibition of OGG1 enzyme activity | 17.8 | 22 | 16.7 | 23.3 | 17 |  |  | 
2 | 0.766 | 19.2 | 24.6 | 21 | 26.5 | O=C(Nc1ccc(Cl)c(Cl)c1)N1CCC(n2c(=O)[nH]c3c(-c4ccc(CO)nc4)cccc32)CC1 [TH5796, N-(3,4-Dichlorophenyl)-4-[4-[6-(hydroxymethyl)-3-pyridyl]-2-oxo-3H-benzimidazol-1-yl]piperidine-1-carbox amide] |  |  |  |  |  |  |  |  | 11.5 | 17.3 | 11.5
3 | 0.17 |  |  |  |  | Cc1cc(NC(=O)N2CCC(n3c(=O)[nH]c4c(Br)cccc43)CC2)ccc1I [TH6943, 4-(4-Bromo-2-oxo-3H-benzimidazol-1-yl)-N-(4-iodo-3-methyl-phenyl)piperidine-1-carboxamide] |  |  |  |  |  |  |  |  |  |  | 
